For one assay, the system named is A549/OPNluc cells. The experiment in a line: WST assay (cell growth inhibition). The class given is cell-based. The following applies: Homo sapiens, 48±4 hours, WST-1, read-out: IC50 (concentration for 50% inhibition of cell growth). From the text:
A reporter vector pOPN1-luc obtained by inserting a human OPN promoter sequence (−765 to 23) into the multiple cloning site of pGL-3 basic vector (Promega) expresses luciferase when transfected into animal cells. This pOPN1-luc was transfected into a human non-small cell lung cancer-derived cell line A549 together with pPUR (Clontech) that expresses a puromycin resistance gene (puromycin-N-acetyl-transferase gene), and cells that could grow in a puromycin-supplemented medium and expressed luciferase were selected. The selected cells were named A549/OPNluc cells and used for observation of luciferase expression inhibitory effect under control of OPN promoter, as described later.
A test compound was added to a culture liquid containing A549/OPNluc cells to observe its influence on the amount of luciferase expressed in the cells. Here, it can be considered that when the test compound has cytotoxity or cell growth-suppressing effect, the total expression level of luciferase is reduced due to a reduction in the number of living cells that depends on the concentration of the test compound, and therefore the luciferase expression inhibitory effect of the test compound under control of OPN promoter cannot be properly evaluated. For this reason, WST assay for quantification of cell proliferation ability or cell viability by colorimetric measurement was first performed to determine IC50 (concentration for 50% inhibition of cell growth) of the test compound for cell growth. Then, luciferase activity measurement was performed to determine EC50 (concentration for 50% inhibition of luciferase expression) of the test compound for luciferase expression under control of OPN promoter.
A549/OPNluc cells were suspended in DMEM medium containing 10% fetal calf serum (FCS) and 1% penicillin/streptomycin (P/S) at 3×10^4 cells/mL to obtain a cell suspension, and 100 μL of the cell suspension was dispensed into each well of a 96-well plate. In order to perform the assay in triplicate, 3 wells were prepared for a control group and 3 wells were prepared for each test compound-treated group at each concentration. After the dispensing, the 96-well plate was incubated in a CO2 incubator (at 37° C. and 5% CO2) for 24±4 hours.
The test compound was dissolved in dimethylsulfoxide (DMSO) to obtain a 50 mmol/L solution, and the test compound solution was stored at −80° C. The test compound solution was diluted with DMSO in 2-fold dilution series (usually, in the range of 0.31 mmol/L to 20 mmol/L) to prepare test compound solutions whose concentration varied by two fold for WST assay.
Only DMSO (control) or the diluted test compound (sample) solution was dispensed in an amount of 0.5 μL into each well containing the cell suspension (200-fold dilution). The solution in each well was mixed with a vortex mixer, and then the 96-well plate was incubated in a CO2 incubator (at 37° C. and 5% CO2) for 48±4 hours. Then, 10 μL of Premix WST-1 Reagent (TAKARA BIO INC.) was added to each well. The solution in each well was mixed with a vortex mixer, and then the 96-well plate was incubated at 37° C. and 5% CO2. After 60 minutes or 120 minutes, absorbance values (450 nm) were measured using a microplate reader (Bio-Rad; Benchmark or Thermo Scientific; Varioskan Flash).
The absorbance values of the control wells and the absorbance values of the sample wells at each concentration were input into an Excel file to determine the percentages of absorbance values of the sample wells at each concentration with respect to the average of absorbance values of the control wells. From the determined values, a fitted curve was determined by the method of least squares to calculate IC50.
On the technique in general: Tetrazolium assays rely on reduction of a dye to a coloured formazan, in cell work by metabolically active cells.

In assay [1] the test system is human non-small cell lung cancer-derived cell line A549. Kind of assay: Wound-Healing assay. The class given is cell-based. The following applies: A549 cells, 2 days after injury. From the text: In the next stage, a determination was made as to whether or not the physiological function of cells induced by OPN production was suppressed by the compound 3 as a test compound. The determination was made by performing cell Wound-Healing assay. This assay is commonly known as a method for evaluating cell migration capacity. When a wound is made in a cell monolayer by scratching some cells with a pipette tip or the like, the wound is closed by migration of cells around the wound. The influence of a test compound on such function was observed by adding the test compound to a cell culture liquid. […]
Based on the taken images, the areas of the wounds were determined using Image-Pro Plus 7.0J (MediaCybernetics). Then, a wound healing rate (%) was calculated based on the following calculation formula: Wound healing rate (%)=100−[area of wound after 2 days from injury/area of wound just after injury]×100. The average wound-healing rates (%) of the control group and the two compound 3-treated groups at different concentrations were calculated. Further, the percentage of the wound-healing rate of the compound-treated group with respect to the wound-healing rate of the control group was also calculated.
The statistical processing of calculated values of the wound-healing rate was performed using Excel statistics, Statcel 3. […]

The structures appear in SMILES notation.

For the compound `CCCCCCCCCCCC(=O)[C@H]1C(=O)O[C@@H](C)C[C@@H]1C` [Chemical formula 3], the IC50 with A549/OPNluc cells amounted to 56.2 µM. Besides, the “wound-healing rate vs control group” value is reported as “no difference” in assay [1] (12.5 μmol/L) and “significantly suppressed” in assay [1] (25 μmol/L, significance level less than 1%).

The values above are taken from US9463188B2, “Osteopontin production inhibitor containing dictyopyrone derivative or dihydrodictyopyrone derivative as active ingredient” (TOHOKU UNIVERSITY, priority 2013, dated 2016).
